Where no end group is shown, it is not given here.
Tests used:
[1] = test system: cyclic AMP generation in human peripheral blood mononuclear cells (PBMC); experiment: cAMP induction assay (ELISA); type: cell-based; conditions: 10 min at 37° C.
Method: The cAMP kit was used as an immunoassay for the quantitative determination of cyclic AMP generation in human peripheral blood mononuclear cells (PBMC). PBMC were placed in 96-well microtitier plates (50 microliters of cells at 4×10^6/ml) and 50 microliters of medium alone (background control), forskolin (cAMP positive control; 50 micrograms per ml), or test peptides were added. Plates were mixed and incubated for 10 min at 37° C. and the cells were lysed by the addition of 50 microliters of 3% perchloric acid. NaOH was added to neutralize the samples. Plates were centrifuged for 15 min at 2500 rpm and the supernatants removed. The supernatants (diluted 2-fold in assay buffer) were then assayed for the levels of cAMP by ELISA.

HUVEC = experiment: Endothelial tube formation assay; type: cell-based, human; conditions: 10 micrograms per ml, 20 hours
Text: Positive control was vehicle only.

[2] = test system: Human Peripheral Blood Mononuclear Cells (PBMC), B cell proliferation; experiment: B cell proliferation assay (SAC plus Interleukin-2, 3H-thymidine); type: cell-based; conditions: 10 micrograms per ml; SAC plus IL-2 stimulated PBMC
Method: Human Peripheral Blood Mononuclear Cells (PBMC) were obtained from normal human donors. The B cell proliferation was induced by stimulation of the cells with the B cell mitogen Staphylococcus aureus Cowans I (SAC) plus Interleukin-2, either in the absence (positive proliferation control), or in the presence of test peptides—10 micrograms per ml—to examine their effects on the B cell response. 10^5/well PBMC were plated in 96-well microtiter plates and assayed in duplicate with the peptides. […] At the end of incubation time, the plates were harvested and the cells counted by liquid scintillation for the incorporation of ^3H-thymidine as a measure of B cell proliferation.

[3] = test system: IL-2, IL-4, IL-5, IFN-γ and TNF-α protein levels of spleen cells; experiment: Th1/Th2 cytokine profiling assay (Ovalbumin-restimulated spleen cells, CBA kit); type: cell-based, Balb/c mice; conditions: 10 micrograms per ml; Ovalbumin restimulation, 72 hours
Text: The Balb/c mice (originated in 1923, it is a popular strain and is used in many different research disciplines. Also classified as an inbred from the production of 20 or more successive brother-sister matings, the Balb/c mouse is albino and small in size) were immunized on Days 1, 15, and 29 with Ovalbumin (Ovalbumin is the main protein found in egg white, commonly used to stimulate an immunological reaction in test animals) in PBS (5 micrograms/injection). On day 50, spleens of the mice were harvested (3 weeks after last boost with Ovalbumin). […] Thereafter, additional Ovalbumin was added to the cells at 10 micrograms/ml for in vitro restimulation of the cells. 72 hours later, cell supernatants were harvested and assayed using the Becton Dickinson Mouse Th1/Th2 Cytokine CBA Kit. This kit can be used to measure Interleukin-2 (IL-2), Interleukin-4 (IL-4), Interleukin-5 (IL-5), Interferon-γ (IFN-γ), and Tumor Necrosis Factor-α (TNF-α) protein levels in a single sample.

[4] = test system: hepatitis B virus (HBV) ayw strain; experiment: HBV assay in HepG2-2.2.15 cells (secreted HBV DNA, TaqMan PCR); type: cell-based; conditions: 10 micrograms per ml, six days, HBV DNA in supernatant
Text: HepG2-2.2.15 is a stable cell line containing the hepatitis B virus (HBV) ayw strain genome (ATCC Cat. No. CRL-11997). Antiviral compounds blocking any late step of viral replication such as transcription, translation, pregenome encapsidation, reverse transcription, particle assembly and release can be identified and characterized using this cell line. In this assay, an active compound will reduce the production of secreted HBV from cells, measured by utilizing real time quantitative PCR (TaqMan) assay to directly and accurately measure HBV DNA copies.
HepG2-2.2.15 cells were plated in 96-well microtiter plates. After 16-24 hours the confluent monolayer of HepG2-2.2.15 cells was washed and the medium was replaced with complete medium containing test peptides—10 micrograms per ml—in duplicate. […] Six days following the initial administration of the peptides, the cell culture supernatants was collected, treated with pronase and DNAse and then used in a real-time quantitative TaqMan PCR assay. The PCR-amplified HBV DNA was detected in real-time by monitoring increases in fluorescence signals that result from the exonucleolytic degradation of a quenched fluorescence probe molecule that hybridizes to the amplified HBV DNA. […] Antiviral activity was calculated from the reduction in HBV DNA levels (% virus control). […]

[5] = test system: Primary Human endothelial cells (HUVEC); experiment: Endothelial cell migration assay; type: cell-based; conditions: 10 micrograms per ml, 22 hours
Method: Thereafter, designated concentration of testing peptides -10 micrograms per ml—was added in duplicate wells.

HIV-1IIIB = experiment: HIV-1 antiviral assay in CEM-SS cells (MTS read-out of virus cell killing)

| Compound | induction of cAMP formation in human peripheral blood cells [1] | inhibition of the tube formation of endothelial cells (HUVEC) | inhibition of the proliferation of specifically stimulated human B-cells [2] | IFNγ spleen cells; TH1 response (% of control) [3] | IL-2 spleen cells (% of control) [3] | IL-4 spleen cells; TH2 response (% of control) [3] | IL-5 spleen cells; TH2 response (% of control) [3] | TNF-a spleen cells; TH1 response (% of control) [3] | inhibition of HBV replication as compared to the virus control infection [4] | induction of the migration of human endothelial cells [5] | antiviral activity of positive control compounds (HIV-1) (HIV-1IIIB) |
| --- | --- | --- | --- | --- | --- | --- | --- | --- | --- | --- | --- |
| Met-Ala-Ile-Pro-Pro-Lys-Lys-Asn-Gln-Asp-Lys-OH (MAIPPKKNQDK-OH) [peptide 1] | 5.3% | 23% | 21.2% | 63.4 % of control | 0.0 % of control | 0.0 % of control | 57.1 % of control | 74.9 % of control | 29.4% | 22% |  |
| Tyr-Gly-Phe-Gln-Asn-Ala-OH (YGFQNA-OH) [peptide 2] | 1.8% | 21% | 7.1% | 48.2 % of control | 0.0 % of control | 0.0 % of control | 42.2 % of control | 81.4 % of control | 35.7% | 26% |  |
| CC(C)(C)NC(=O)[C@@H]1CN(Cc2cccnc2)CCN1C[C@@H](O)C[C@@H](Cc1ccccc1)C(=O)N[C@H]1c2ccccc2C[C@H]1O [indinavir] |  |  |  |  |  |  |  |  |  |  | expected levels of antiviral activity |
| Cc1cn([C@H]2C[C@H](N=[N+]=[N-])[C@@H](CO)O2)c(=O)[nH]c1=O [AZT] |  |  |  |  |  |  |  |  |  |  | expected levels of antiviral activity |

— US20100204144A1, “USE OF THE PEPTIDES MAIPPKKNQDK (COW KAPPA CASEIN 106-116) AND/OR YGFQNA (SERORPHIN) AS THERAPEUTIC AGENTS” (priority 2007, published 2010)
